Legend:
[1] = system: IZN36 Q577R (gp41 N-peptide mimic); assay type: binding, HIV-1 (HXB2 strain); conditions: Q577R vs. WT IZN36
Protocol: A Q577R mutant version was generated via site-directed mutagenesis using the QuikChange® protocol (Stratagene). […] The cysteine residues of these constructs were biotinylated for SPR.
Protein interaction analysis was carried out on a Biacore 3000 (GE Healthcare). Analyses were performed in triplicate at 25 °C in sterile-filtered and degassed Gibco® PBS pH 7.4 (Invitrogen) supplemented with 0.005% P20 and 1 mg/mL BSA at a flow rate of 50 μL/min. First, streptavidin (Pierce) was immobilized on CM5 chips (GE Healthcare) using the Amine Coupling Kit (GE Healthcare) following a standard coupling protocol [36]. […] Injections were performed for 1 min using KINJECT. Dissociation was monitored for 2 min, followed by a 20 μL injection (QUICKINJECT) of running buffer followed by EXTRACLEAN. Sensorgrams were processed using Scrubber2 (BioLogic Software), and data were analyzed with Prism 5.0 (GraphPad Software). The equilibrium binding data were fit using the built-in saturation binding model (one site—specific binding), normalized to Bmax, and replotted as concentration of analyte vs. % capacity.

[2] = system: enfuvirtide resistance mutations in HIV-1; conditions: next-generation L-peptide fusion inhibitors; cited from earlier work
From the text: The remarkable conservation of this gp41 hydrophobic pocket target is indicative of its critical roles in the viral life cycle and impedes the ability of the virus to combat inhibitors that target it. The region of the HIV-1 genome encoding the pocket is conserved at both the protein level (for the role of gp41 in membrane fusion during viral entry) and nucleotide level (due to a structured RNA region in the critical Rev-response element). The only FDA-approved HIV fusion inhibitor, enfuvirtide (Fuzeon), is an L-peptide derived from the gp41 C-peptide region that targets the gp41 N-trime ...

[3] = system: HIV-1 HXB2 Env Q577R pseudotyped HIV-1; assay type: cell-based; conditions: for C-peptide inhibition of Q577R compared to WT pseudoviruses: in words
From the text: (§1) Supplementary file 12977_2019_489_MOESM3_ESM.pdf: Additional file 3. Effect of Q577R on C-peptide Inhibitors. Single-cycle viral infectivity assays in which HIV-1 HXB2 Env (WT and Q577R) pseudotyped HIV-1 with a luciferase reporter was used to infect HOS-LES cells in the absence or presence of six fivefold dilutions of the indicated C-peptide (in quadruplicate). The data are the average of two experiments with the standard deviation in parentheses.

HIV-1 = conditions: in vitro and in vivo; cited from earlier work
From the text: The remarkable conservation of this gp41 hydrophobic pocket target is indicative of its critical roles in the viral life cycle and impedes the ability of the virus to combat inhibitors that target it. The region of the HIV-1 genome encoding the pocket is conserved at both the protein level (for the role of gp41 in membrane fusion during viral entry) and nucleotide level (due to a structured RNA region in the critical Rev-response element). The only FDA-approved HIV fusion inhibitor, enfuvirtide (Fuzeon), is an L-peptide derived from the gp41 C-peptide region that targets the gp41 N-trime ... || Q577R has also been identified in viral resistance screens against other HIV-1 entry inhibitors that target the prehairpin intermediate. Against N-trimer peptides N44, N36, and IZN36, the C-peptide T2635, and the retrocyclin RC-101, Q577R is found in some or all of the resistant viruses and always accompanied by other gp41 mutation(s). By itself, Q577R provided only modest resistance to the N-trimer and C-peptide inhibitors (< threefold). Viral escape from a recently identified adnectin, 6200_A08, which similarly targets the gp41 hydrophobic pocket, ...

HIV-1 strain NL4-3 = conditions: similar passaging studies; cited from earlier work
From the text: This extremely high affinity for the transiently exposed gp41 trimer provides a reserve of binding energy (resistance capacitor) to prevent the viral resistance pathway of stepwise accumulation of modest affinity-disrupting mutations. Such modest mutations would not affect PIE12-trimer potency and therefore not confer a selective advantage. Viral pa ... || We previously reported the selection of HIV-1 populations resistant to PIE12-trimer by passaging the lab-adapted NL4-3 strain in the presence of escalating suboptimal (partially inhibiting) concentrations of inhibitor, starting with 1 nM. Ultimately, PIE12-trimer resistant virus propagating in 320 nM PIE12-trimer was obtained after 65 weeks of passaging. Duplicate selections yielded two highly resistant polyclonal viral pools (W1 and W2). As previously reported, similar passaging studies with enfuvirtide led to high-level resistance (> 1000-fold) within ~ 3 weeks. […] We therefore investigated the growth kinetics of the NL4-3-based replication competent Q577 point mutants and the polyclonal viral pools (W1 and W2) and compared them to that of the native virus (clonal NL4-3, WT).

Q577R HIV-1 = conditions: other studied HIV-1 strains; cited from earlier work
From the text: (§2) Q577R has also been identified in viral resistance screens against other HIV-1 entry inhibitors that target the prehairpin intermediate. Against N-trimer peptides N44, N36, and IZN36, the C-peptide T2635, and the retrocyclin RC-101, Q577R is found in some or all of the resistant viruses and always accompanied by other gp41 mutation(s). By itself, Q577R provided only modest resistance to the N-trimer and C-peptide inhibitors (< threefold). Viral escape from a recently identified adnectin, 6200_A08, which similarly targets the gp41 hydrophobic pocket, ...

[4] = system: Q577R in patient pre-treatment env; conditions: patient's pre-treatment env; cited from earlier work
From the text: as §2

[5] = system: HIV-1 HXB2 Env WT pseudotyped HIV-1; assay type: cell-based; conditions: HXB2 Env WT pseudotyped HIV-1, luciferase reporter, HOS-LES cells, six fivefold dilutions in quadruplicate; average of two experiments (SD)
From the text: as §1

## CC(=O)N[C@H](Cc1c[nH]cn1)C(=O)N1CCC[C@@H]1C(=O)N[C@@H]1CSSC[C@H](C(=O)N[C@H](CCC(=O)O)C(=O)N[C@H](CC(C)C)C(=O)NCC(=O)N[C@H](CCCCN)C(N)=O)NC(=O)[C@@H](CC(C)C)NC(=O)[C@@H](Cc2c[nH]c3ccccc23)NC(=O)[C@@H](CCC(N)=O)NC(=O)[C@@H](Cc2c[nH]c3ccccc23)NC(=O)[C@@H](CCC(=O)O)NC(=O)[C@H]2CCCN2C(=O)[C@@H](Cc2ccc(O)cc2)NC(=O)[C@@H](CC(=O)O)NC1=O [PIE12]
[1]
  weakening of the interaction: ~ 65 fold
  weakening of the interaction (binding energy): 2.5 kcal/mol

## CC[C@H](C)[C@H](NC(=O)[C@H](CCC(N)=O)NC(=O)[C@H](C)NC(=O)[C@H](CCC(N)=O)NC(=O)[C@H](CCC(=O)O)NC(=O)[C@H](CC(C)C)NC(=O)[C@H](CC(C)C)NC(=O)[C@H](C)NC(=O)[C@@H](NC(=O)[C@@H](NC(=O)[C@H](CCCCN)NC(=O)[C@H](CCC(N)=O)NC(=O)[C@H](CCC(=O)O)NC(=O)[C@H](Cc1c[nH]c2ccccc12)NC(=O)[C@H](CCC(=O)O)NC(=O)[C@H](CCC(N)=O)NC(=O)[C@H](Cc1c[nH]c2ccccc12)NC(C)=O)[C@@H](C)CC)[C@@H](C)O)C(=O)N[C@@H](CCC(N)=O)C(=O)N[C@@H](CCC(N)=O)C(=O)N[C@@H](CCC(=O)O)C(=O)N[C@@H](CCCCN)C(=O)N[C@@H](CC(N)=O)C(=O)N[C@@H](CCC(=O)O)C(=O)N[C@@H](Cc1ccc(O)cc1)C(=O)N[C@@H](CCC(=O)O)C(=O)N[C@@H](CC(C)C)C(=O)N[C@@H](CCC(N)=O)C(=O)N[C@@H](CCCCN)C(=O)N[C@@H](CC(C)C)C(=O)N[C@@H](CC(=O)O)C(=O)N[C@@H](CCCCN)C(=O)N[C@@H](Cc1c[nH]c2ccccc12)C(=O)N[C@@H](C)C(=O)N[C@@H](CO)C(=O)N[C@@H](CC(C)C)C(=O)N[C@@H](Cc1c[nH]c2ccccc12)C(=O)N[C@@H](CCC(=O)O)C(=O)N[C@@H](Cc1c[nH]c2ccccc12)C(=O)N[C@@H](Cc1ccccc1)C(N)=O [T1249]
[2]
  impact of enfuvirtide resistance mutations: much less impacted by enfuvirtide resistance mutations
[3]; IC50 Q577R vs. WT
  Fold Difference: 1.2
[3]
  C-peptide inhibition of Q577R compared to WT pseudoviruses: only modest differences

## enfuvirtide
HIV-1
  emergence of gp41 resistance mutations: rapid emergence of gp41 resistance mutations
HIV-1 strain NL4-3
  level of resistance on passaging: > 1000 fold
  time to high-level resistance: ~ 3 weeks
Q577R HIV-1
  effect of Q577R on sensitivity: minimally affected by Q577R
[4]
  resistance provided by Q577R: 25 fold
[3]; HXB2 Env Q577R pseudotyped HIV-1, luciferase reporter, HOS-LES cells, six fivefold dilutions in quadruplicate, average of two experiments (SD)
  IC50: 5.33 nM
[3]
  C-peptide inhibition of Q577R compared to WT pseudoviruses: only modest differences
[5]
  IC50: 1.62 nM

Source: article PMC6805555, “Characterization of resistance to a potent D-peptide HIV entry inhibitor” (Retrovirology, 2019)
